Assay results taken from patent US20080207596A1, “Novel compounds 329” (priority 2006, published 2008).

molecular target: T1, human active recombinant p38α-6His tagged (Homo sapiens, UniProt Q16539); assay: P38 alpha enzyme assay (AlphaScreen, biotinylated-ATF2 substrate); assay type: biochemical; details: 4 hours pre-incubation at 37° C., 1 mM ATP added
T1 construct: 6His
Procedure: Enzyme assays were performed in polypropylene 96 well plates. The following solutions were added to each well; 10 μL of compound dilutions in assay buffer (20 mM HEPES pH 7.4, containing 20 mM magnesium acetate, 0.005% (w/v) Tween-20, 10 mM DTT) containing 1% (v/v) DMSO or assay buffer containing 1% (v/v) DMSO alone, 70 μL of assay buffer containing 36 nM substrate (biotinylated-ATF2) and 10 μL of an appropriate dilution of human active recombinant p38α-6His tagged. Depending on batch of p38, an appropriate dilution was typically a 5 nM solution to give a final enzyme concentration of 0.5 nM. At this stage, background control wells also received 50 μL of AlphaScreen quench buffer (10 mM HEPES pH 7.4 containing 100 mM EDTA, 0.2% (w/v) bovine serum albumin). The plate was covered, pre-incubated for 4 hours at 37° C. and the enzyme reaction initiated by addition of 10 μL 1 mM ATP. After incubation for a further 45 minutes at 37° C., the reaction was stopped by addition of 50 μL quench reagent and 50 μL of the quenched reaction mixture transferred to an opaque, white 96-well plate. Detection reagent, 25 μL of 10 mM HEPES pH 7.4 containing 100 mM EDTA, 0.2% (w/v) bovine serum albumin, 0.3 nM anti phosphoATF2 antibody and 25 μg/mL of AlphaScreen protein A acceptor and donor beads, was added to all wells in a darkened room, the plate sealed and left in the dark for between 5 and 24 hours before AlphaScreen readings were taken using a Perkin Elmer EnVision reader.

T1 sequence (Q16539 whole entry): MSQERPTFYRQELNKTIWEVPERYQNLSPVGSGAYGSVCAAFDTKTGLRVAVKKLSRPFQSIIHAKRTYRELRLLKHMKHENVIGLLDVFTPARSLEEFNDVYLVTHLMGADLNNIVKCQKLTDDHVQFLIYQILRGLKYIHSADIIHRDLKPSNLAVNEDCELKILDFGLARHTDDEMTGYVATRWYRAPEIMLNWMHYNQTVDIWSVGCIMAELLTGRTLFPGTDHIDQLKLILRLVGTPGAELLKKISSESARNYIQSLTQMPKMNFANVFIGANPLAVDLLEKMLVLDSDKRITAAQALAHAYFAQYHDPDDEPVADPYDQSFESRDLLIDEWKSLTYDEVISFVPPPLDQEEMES

IC50 [nM] | Compound
10 | Cc1ccc(NC(=O)c2cccc(N3CCCCC3)c2)cc1-n1ccc2ccc(OCCN3CCCC3)cc2c1=O [Example 1, N-{4-Methyl-3-[1-oxo-7-(2-pyrrolidin-1-ylethoxy)isoquinolin-2(1H)-yl]phenyl}-3-piperidin-1-ylbenzamide]
2 | Cc1ccc(NC(=O)c2ccnc(N3CCCC3)c2)cc1-n1ccc2ccc(OCCN3CCCC3)cc2c1=O [Example 5, N-{4-Methyl-3-[1-oxo-7-(2-pyrrolidin-1-ylethoxy)isoquinolin-2(1H)-yl]phenyl}-2-pyrrolidin-1-ylisonicotinamide]
0.2 | Cc1ccc(NC(=O)c2ccnc(-c3cccs3)c2)cc1-n1ccc2ccc(OCCN(C)C)cc2c1=O [Example 9, N-{3-[7-[2-(dimethylamino)ethoxy]-1-oxoisoquinolin-2(1H)-yl]-4-methylphenyl}-2-(2-thienyl)isonicotinamide]
0.794 | Cc1ccc(NC(=O)c2cccc(-c3cnco3)c2)cc1-n1ccc2ccc(OCCCN3CCCC3)cc2c1=O [Example 11, N-{4-Methyl-3-[1-oxo-7-(3-pyrrolidin-1-ylpropoxy)isoquinolin-2(1H)-yl]phenyl}-3-(1,3-oxazol-5-yl)benzamide]
